Reference: US20260258032A1, “TYROSINE KINASE 2 INHIBITORS AND USES THEREOF” (BIOGEN MA INC., priority 2022, published 2026)
Structures can show the parent of a compound that is named as a salt.

Tests used:
[1] = test system: Tyk2 kinase activity on STAT4; assay: pSTAT4 cell assay (MSD, NK92 cells); assay type: cell-based; details: compounds 1 hr, then stimulated 15 minutes
Procedure, shortened: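 IC50 values come from 4-parameter logistic fits of normalized percent activity. Phospho-STAT was read by MSD (anti-STAT4 antibodies) in NK92 lysates after a 15 min stimulation with 30 ng/mL IL2. The serum-starved cells had been given compound for 1 h (10 points, four-fold, top 10 μM).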

JH2 domain of human Tyk2 = target: T1, JH2 domain of human Tyk2 (Homo sapiens, UniProt P29597); assay: JH2 biochemical assay (TR-FRET probe displacement); assay type: binding; details: TR-FRET probe displacement, JH2 domain of human Tyk2
T1 construct: 10×His-tagged TYK2 JH2 domain (amino acid 575-876)
Procedure, shortened: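 A probe-displacement TR-FRET readout: compounds, tested in 3-fold, 10-point dilutions starting at […], compete with 2 nM tracer for 2 nM His-tagged JH2 (residues 575-876) detected by 0.1 nM Tb-anti-His over 60 min. IC50 comes from 4-parameter fits of normalized 520/495 nm ratios.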

T1 sequence (P29597 575-876): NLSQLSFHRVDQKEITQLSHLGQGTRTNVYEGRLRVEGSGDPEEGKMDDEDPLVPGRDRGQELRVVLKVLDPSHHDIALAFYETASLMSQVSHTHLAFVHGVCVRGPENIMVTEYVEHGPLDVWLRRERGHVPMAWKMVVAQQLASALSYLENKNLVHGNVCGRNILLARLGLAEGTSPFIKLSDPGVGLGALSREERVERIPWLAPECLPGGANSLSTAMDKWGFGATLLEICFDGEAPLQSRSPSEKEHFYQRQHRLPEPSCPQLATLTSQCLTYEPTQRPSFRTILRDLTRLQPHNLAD

Row | Compound | IC50 [1] [µM] | IC50 (JH2 domain of human Tyk2) [µM]
1 | CC(=O)Nc1cc2c(cn1)C1(CC1)CN2c1cc(-c2ccncc2F)nc(C(C)(F)F)n1 [Example 381, N-(1′-(2-(1,1-difluoroethyl)-6-(3-fluoropyridin-4-yl)pyrimidin-4-yl)-1′,2′-dihydrospiro[cyclopropane-1,3′-pyrrolo[3,2-c]pyridin]-6′-yl)acetamide trifluoroacetate] | ≤ 0.01 | ≤ 0.01
2 | CC(=O)Nc1cc2c(cn1)C1(CC1)CN2c1cc(-c2cnn(C3CCC3)c2)nc(C(C)(F)F)n1 [Example 382, N-(1′-(6-(1-cyclobutyl-1H-pyrazol-4-yl)-2-(1,1-difluoroethyl)pyrimidin-4-yl)-1′,2′-dihydrospiro[cyclopropane-1,3′-pyrrolo[3,2-c]pyridin]-6′-yl)acetamide trifluoroacetate] | ≤ 0.01 | ≤ 0.01
3 | CC(=O)Nc1cc2c(cn1)C1(CC1)CN2c1cc(-c2cnn(C(F)F)c2)nc(C(C)(F)F)n1 [Example 383, N-(1′-(2-(1,1-difluoroethyl)-6-(1-(difluoromethyl)-1H-pyrazol-4-yl)pyrimidin-4-yl)-1′,2′-dihydrospiro[cyclopropane-1,3′-pyrrolo[3,2-c]pyridin]-6′-yl)acetamide trifluoroacetate] | 0.01 to 0.1 | ≤ 0.01
4 | CC(=O)Nc1cc2c(cn1)C1(CC1)CN2c1cc(-c2cnn(C)c2C(F)F)nc(C(C)(F)F)n1 [Example 385, N-(1′-(2-(1,1-difluoroethyl)-6-(5-(difluoromethyl)-1-methyl-1H-pyrazol-4-yl)pyrimidin-4-yl)-1′,2′-dihydrospiro[cyclopropane-1,3′-pyrrolo[3,2-c]pyridin]-6′-yl)acetamide trifluoroacetate] | 0.01 to 0.1 | ≤ 0.01
5 | CC(=O)Nc1cc2c(cn1)C1(CC1)CN2c1cc(-c2cnn(C3CC3)c2)nc(C(C)(F)F)n1 [Example 387, N-(1′-(6-(1-cyclopropyl-1H-pyrazol-4-yl)-2-(1,1-difluoroethyl)pyrimidin-4-yl)-1′,2′-dihydrospiro[cyclopropane-1,3′-pyrrolo[3,2-c]pyridin]-6′-yl)acetamide trifluoroacetate] | ≤ 0.01 | ≤ 0.01
6 | CC(=O)Nc1cc2c(cn1)C1(CC1)CN2c1cc(-c2cnn(C3COC3)c2)nc(C(C)(F)F)n1 [Example 388, N-(1′-(2-(1,1-difluoroethyl)-6-(1-(oxetan-3-yl)-1H-pyrazol-4-yl)pyrimidin-4-yl)-1′,2′-dihydrospiro[cyclopropane-1,3′-pyrrolo[3,2-c]pyridin]-6′-yl)acetamide] | ≤ 0.01 | ≤ 0.01
7 | CC(=O)Nc1cc2c(cn1)C1(CC1)CN2c1cc(-c2cnn(CC3CC3)c2)nc(C(C)(F)F)n1 [Example 389, N-(1′-(6-(1-(cyclopropylmethyl)-1H-pyrazol-4-yl)-2-(1,1-difluoroethyl)pyrimidin-4-yl)-1′,2′-dihydrospiro[cyclopropane-1,3′-pyrrolo[3,2-c]pyridin]-6′-yl)acetamide] | ≤ 0.01 | ≤ 0.01
8 | CC(=O)Nc1cc2c(cn1)C1(CC1)CN2c1cc(-c2cnn(CCN3CCOCC3)c2)nc(C(C)(F)F)n1 [Example 390, N-(1′-(2-(1,1-difluoroethyl)-6-(1-(2-morpholinoethyl)-1H-pyrazol-4-yl)pyrimidin-4-yl)-1′,2′-dihydrospiro[cyclopropane-1,3′-pyrrolo[3,2-c]pyridin]-6′-yl)acetamide trifluoroacetate] | ≤ 0.01 | ≤ 0.01
9 | CC(=O)Nc1cc2c(cn1)C1(CC1)CN2c1cc(-c2cnn(CCN(C)C)c2)nc(C(C)(F)F)n1 [Example 391, N-(1′-(2-(1,1-difluoroethyl)-6-(1-(2-(dimethylamino)ethyl)-1H-pyrazol-4-yl)pyrimidin-4-yl)-1′,2′-dihydrospiro[cyclopropane-1,3′-pyrrolo[3,2-c]pyridin]-6′-yl)acetamide trifluoroacetate] | 0.01 to 0.1 | ≤ 0.01
10 | CC(=O)Nc1cc2c(cn1)C1(CC1)CN2c1cc(-c2cnn(CC(F)(F)F)c2)nc(C(C)(F)F)n1 [Example 392, N-(1′-(2-(1,1-difluoroethyl)-6-(1-(2,2,2-trifluoroethyl)-1H-pyrazol-4-yl)pyrimidin-4-yl)-1′,2′-dihydrospiro[cyclopropane-1,3′-pyrrolo[3,2-c]pyridin]-6′-yl)acetamide] | ≤ 0.01 | ≤ 0.01
11 | COCCn1cc(-c2cc(N3CC4(CC4)c4cnc(NC(C)=O)cc43)nc(C(C)(F)F)n2)cn1 [Example 394, N-(1′-(2-(1,1-difluoroethyl)-6-(1-(2-methoxyethyl)-1H-pyrazol-4-yl)pyrimidin-4-yl)-1′,2′-dihydrospiro[cyclopropane-1,3′-pyrrolo[3,2-c]pyridin]-6′-yl)acetamide] | ≤ 0.01 | ≤ 0.01
12 | CC(=O)Nc1cc2c(cn1)C1(CC1)CN2c1cc(-c2cn[nH]c2)nc(C(C)(F)F)n1 [Example 395, N-(1′-(2-(1,1-difluoroethyl)-6-(1H-pyrazol-4-yl)pyrimidin-4-yl)-1′,2′-dihydrospiro[cyclopropane-1,3′-pyrrolo[3,2-c]pyridin]-6′-yl)acetamide trifluoroacetate] | 0.01 to 0.1 | ≤ 0.01
13 | CC(=O)Nc1cc2c(cn1)C1(CC1)CN2c1cc(C)nc(C2COC2)n1 [Example 396, N-(1′-(6-methyl-2-(oxetan-3-yl)pyrimidin-4-yl)-1′,2′-dihydrospiro[cyclopropane-1,3′-pyrrolo[3,2-c]pyridin]-6′-yl)acetamide] | ≥ 1 | 0.01 to 0.1
14 | COCc1cc(N2CC3(CC3)c3cnc(NC(C)=O)cc32)nc(C(C)(F)F)n1 [Example 397, N-(1′-(2-(1,1-difluoroethyl)-6-(methoxymethyl)pyrimidin-4-yl)-1′,2′-dihydrospiro[cyclopropane-1,3′-pyrrolo[3,2-c]pyridin]-6′-yl)acetamide] | 0.1 to 1 | ≤ 0.01
15 | CC(=O)Nc1cc2c(cn1)C1(CC1)CN2c1cc(C(C)(C)F)nc(C(C)(F)F)n1 [Example 398, N-(1′-(2-(1,1-difluoroethyl)-6-(2-fluoropropan-2-yl)pyrimidin-4-yl)-1′,2′-dihydrospiro[cyclopropane-1,3′-pyrrolo[3,2-c]pyridin]-6′-yl)acetamide] | 0.01 to 0.1 | ≤ 0.01
16 | CC(=O)Nc1cc2c(cn1)C1(CC1)CN2c1cc(C(C)(C)O)nc(C(C)(F)F)n1 [Example 399, N-(1′-(2-(1,1-difluoroethyl)-6-(2-hydroxypropan-2-yl)pyrimidin-4-yl)-1′,2′-dihydrospiro[cyclopropane-1,3′-pyrrolo[3,2-c]pyridin]-6′-yl)acetamide] | 0.01 to 0.1 | ≤ 0.01
17 | CC(=O)Nc1cc2c(cn1)C1(CC1)CN2c1cc(C(C)F)nc(C(C)(F)F)n1 (stereo not drawn) [Example 400, N-(1′-(2-(1,1-difluoroethyl)-6-(1-fluoroethyl)pyrimidin-4-yl)-1′,2′-dihydrospiro[cyclopropane-1,3′-pyrrolo[3,2-c]pyridin]-6′-yl)acetamide] | 0.01 to 0.1 | ≤ 0.01
18 | COCC(F)(F)c1nc(C)cc(N2CC3(CC3)c3cnc(NC(C)=O)cc32)n1 [Example 401, N-(1′-(2-(1,1-difluoro-2-methoxyethyl)-6-methylpyrimidin-4-yl)-1′,2′-dihydrospiro[cyclopropane-1,3′-pyrrolo[3,2-c]pyridin]-6′-yl)acetamide trifluoroacetate] | ≥ 1 | 0.01 to 0.1
19 | CC(=O)Nc1cc2c(cn1)C1(CC1)CN2c1cc(C)cc(N2CC[C@H](C#N)C2)n1 [Example 402, (S)-N-(1′-(6-(3-cyanopyrrolidin-1-yl)-4-methylpyridin-2-yl)-1′,2′-dihydrospiro[cyclopropane-1,3′-pyrrolo[3,2-c]pyridin]-6′-yl)acetamide] | ≥ 1 | 0.01 to 0.1
20 | CC(=O)Nc1cc2c(cn1)C1(CC1)CN2c1cc(C)cc(N2CC[C@@H](C#N)C2)n1 [Example 403, (R)-N-(1′-(6-(3-cyanopyrrolidin-1-yl)-4-methylpyridin-2-yl)-1′,2′-dihydrospiro[cyclopropane-1,3′-pyrrolo[3,2-c]pyridin]-6′-yl)acetamide] | 0.1 to 1 | ≤ 0.01
21 | CC(=O)Nc1cc2c(cn1)C1(CC1)CN2c1cc(C)cc(N2CCC(C)(C#N)C2)n1 (stereo not drawn) [Example 404, N-(1′-(6-(3-cyano-3-methylpyrrolidin-1-yl)-4-methylpyridin-2-yl)-1′,2′-dihydrospiro[cyclopropane-1,3′-pyrrolo[3,2-c]pyridin]-6′-yl)acetamide] | ≥ 1 | 0.01 to 0.1
22 | CC(=O)Nc1cc2c(cn1)C1(CC1)CN2c1cc(C)cc(N2CCC(C)(O)C2)n1 (stereo not drawn) [Example 405, N-(1′-(6-(3-hydroxy-3-methylpyrrolidin-1-yl)-4-methylpyridin-2-yl)-1′,2′-dihydrospiro[cyclopropane-1,3′-pyrrolo[3,2-c]pyridin]-6′-yl)acetamide trifluoroacetate] | ≥ 1 | 0.1 to 1
23 | CC(=O)Nc1cc2c(cn1)C1(CC1)CN2c1cc(C)cc(N2CCN(CCO)CC2)n1 [Example 406, N-(1′-(6-(4-(2-hydroxyethyl)piperazin-1-yl)-4-methylpyridin-2-yl)-1′,2′-dihydrospiro[cyclopropane-1,3′-pyrrolo[3,2-c]pyridin]-6′-yl)acetamide] | ≥ 1 | 0.1 to 1
24 | CC(=O)Nc1cc2c(cn1)C1(CC1)CN2c1cc(C)nc(N2CC[C@@H](C#N)C2)n1 [Example 407, (R)-N-(1′-(2-(3-cyanopyrrolidin-1-yl)-6-methylpyrimidin-4-yl)-1′,2′-dihydrospiro[cyclopropane-1,3′-pyrrolo[3,2-c]pyridin]-6′-yl)acetamide] | 0.1 to 1 | ≤ 0.01
